The values below come from the NIST ThermoML archive (doi:10.1021/je201130h).

± gives the expanded uncertainty stated by the source.

For the data set the following is noted: 298.15 K; 101.33 kPa; Liquid; Vibrating tube method.
As for `Cc1ccccc1C` [1,2-dimethylbenzene], the mass density is listed as 875.52 ± 0.23 kg/m3.
With `Cc1ccc(C)cc1` [1,4-dimethylbenzene] the figure was 856.65 ± 0.23 kg/m3; with `CC(=O)CC(C)C` [4-methylpentan-2-one], 798.09 ± 0.24 kg/m3.
Turning to `C=CC(=O)O` [propenoic acid], the mass density amounted to 1059.17 ± 0.32 kg/m3.
The value for `Cc1ccccc1` [toluene] was 862.34 ± 0.23 kg/m3.

What is called mass density is mass per unit of volume.
